Reference: patent US20100022517A1, “OPHTHALMIC FORMULATION OF RHO KINASE INHIBITOR COMPOUND” (priority 2006, published 2010)
Converted amounts (≈) assume the structure as drawn. Like-named read-outs stand apart in the source and are kept apart here. Blank lines part the entries; values can stand above or below the compound they belong to.

Columns and labels:
[1] = Impact of pH on solubility, buffered cosolvent system (plON pSOL Evolution); format: physicochemical; details: for solubility: buffered cosolvent system
Procedure: Solubility was determined within a target pH range of 4.0-9.0 using a buffered cosolvent system (plON pSOL Evolution).

[2] = Solubility of Compound A at target pH 7.3 in 0.85% NaCl vehicle with surfactant or chelating agent, filtered, UV analysis; format: physicochemical; details: for Concentration Compound A: 20 mM prepared
Text: Concentrations of the surfactant used were at the maximum allowable concentration for excipients Generally Regarded As Safe (GRAS).

[3] = Accelerated stability of Compound A formulation at 60° C., HPLC with UV detection; format: physicochemical; details: increase in pH from 5.3 to 6.3 and 7.3, 0.9% saline, 0.1% EDTA, 0.01% benzalkonium chloride, 0.8% polysorbate 80
Text: Compound A was formulated in a 0.9% saline solution containing 0.1% EDTA, 0.01% Benzalkonium Chloride and 0.8% Polysorbate 80 at three levels of pH; 5.3, 6.3 and 7.3.

[4] = Effect of formulation pH on ocular surface, aqueous humor and systemic bioavailability after topical ocular dosing; format: in vivo
Procedure: Dose Formulation and Administration. Compound A was formulated at 0.12% w/v (the equivalent millimolar concentration is 3 mM) in 10 mM phosphate, 0.8% polysorbate 80, 0.85% NaCl, 0.01% BAC, 0.1% EDTA at three different pH's, 5.3, 6.3 and 7.3, Compound A was administered as a 30 μl drop to both eyes of each animal within a dosing group and the influence of pH on ocular and systemic exposure was examined.
Study sampling. Plasma, aqueous humor, and ocular samples were obtained from 2 animals (4 eyes) per dosing group at times of 0.25, 0.5, 1, and 2 hours post dosing.
Aqueous humor is the fluid within the anterior chamber of the eye and has the closest correlation to the concentration at the site of action, the trabecular meshwork. Cmax indicates the peak concentration of drug found within aqueous humor. AUC indicates total concentration of the drug within the aqueous humor over time.
Plasma concentration analysis indicates systemic exposure. Systemic exposure is the exposure of the drug to the entire body. Cmax and AUC describe the peak concentration and total concentration of the drug over time, respectively, for Compound A in plasma.
40 μL of saline was applied to the eyes at 0.25 h, 0.5 h, 1 h, and 2 h after administration of Compound A, and the lavage fluids were collected as samples. Ocular surface relates to the surface of the cornea and conjunctiva. Ocular surface residence time is the average time Compound A resides on the ocular surface.

[5] = Ocular comfort composite behaviour score after ocular instillation; format: in vivo, rabbit
Procedure: Dose Formulation and Administration.
Formulation A: 10 mM phosphate, 1% polysorbate 80, 0.85% NaCl, 0.02% BAC, 0.2% EDTA pH 7.0.
Formulation B: 10 mM phosphate, 1% polysorbate 80, 2.36% Glycerol, 0.02% BAC, 0.2% EDTA pH 7.1.
Formulation C: 10 mM phosphate, 1% polysorbate 80, 2.36% Glycerol, 0.02% BAC, 0.2% EDTA, 0.5% hydroxypropyl methyl cellulose, pH 7.1.
Formulation D: 10 mM phosphate, 1% polysorbate 80, 2.36% Glycerol, 0.02% BAC, 0.2% EDTA, 1% 1,2 dimyristoyl-sn-glycero-3-phosphocholine, pH 7.1.
Pharmacodynamic Analysis. Formulations A-D were administered as two 30 μl drops to the right eye of each rabbit within a dosing group. The rabbits were evaluated for 15 minutes after ocular instillation and their changes in behavior were recorded. […] The higher the score, the more discomfort an animal is. A mean±SE was generated for each group.

[6] = […] w/v, 30 μl drop to both eyes, increasing pH 5.3, 6.3, 7.3

- solubility ([1]; pH 5.6, read-out: maximum solubility): 5000 µg/mL (≈ 12.1 mM)
- Avg. Sol ([1]; pH 5.6): 5001 µg/mL
- Avg. Sol ([1]; pH 7.2): 948 µg/mL
- Avg. Sol ([1]; pH 8.5): 282 µg/mL
SMILES: CCS(=O)(=O)Nc1cccc(CN2CCC[C@@H](Nc3ccc4[nH]ncc4c3)C2)c1 [Compound 1.123, (R)-N-(3-((3-(1H-indazol-5-ylamino)piperidin-1-yl)methyl)phenyl)ethanesulfonamide]

- solubility ([1]; pH 4-5.8, read-out: solubility): > 20000 µg/mL
- Avg. Sol ([1]; pH 4.0): >20000 µg/mL
- Avg. Sol ([1]; pH 5.8): >20000 µg/mL
- Avg. Sol ([1]; pH 7.7): 2312 µg/mL
- Concentration Compound A ([2]; EDTA 0.3%, pH of solution 7.39, 0.85% NaCl): 1380 µg/mL
- Concentration Compound A ([2]; HCO-40 (hydrogenated castor oil) 0.5%, pH of solution 7.39, 0.85% NaCl): 2540 µg/mL
- Concentration Compound A ([2]; Poloxamer 188 0.1%, pH of solution 7.30, 0.85% NaCl): 1490 µg/mL
- Concentration Compound A ([2]; Poloxamer 407 0.16%, pH of solution 7.28, 0.85% NaCl): 6020 µg/mL
- Concentration Compound A ([2]; Polysorbate 80 1%, pH of solution 7.49, 0.85% NaCl): 3850 µg/mL
- solubility of Compound A among the surfactant formulations ([2]; formulations containing polysorbate 80 and poloxamer 407, target pH 7.3): highest solubility
- stability (percent of Compound A remaining) [3]: decrease in stability
- ocular surface concentration ([4]; 0.25 h, between pH 5.3 and 6.3): increased only slightly
- ocular surface concentration ([4]; 0.25 h, from pH 6.3 to 7.3): no change
- plasma concentration (Cmax and AUC), systemic exposure [4, 6]: no effect on the plasma concentration
- ocular surface residence time ([4]; […] w/v, pH increased from 5.3, 6.3 to 7.3, over 2 hours): increase in residence time
- ocular surface concentration ([4]; between 1 and 2 hours, pH 7.3): remained consistent
- ocular comfort score ([5]; 0.16% w/v, two 30 μl drops, right eye, addition of 1% 1,2 dimyristoyl-sn-glycero-3-phosphocholine (Formulation D)): increased ocular discomfort
- ocular comfort score ([5]; increasing concentrations 0.03%, 0.1%, 0.32% w/v in formulation A): increased ocular discomfort
SMILES: OCCOc1cccc(CN2CC[C@@H](Nc3cccc4cnccc34)C2)c1 [Compound 2.039, (R)-2-(3-((3-(isoquinolin-5-ylamino)pyrrolidin-1-yl)methyl)phenoxy)ethanol]
- aqueous humor exposure (Cmax and AUC) [4, 6]: enhances the exposure within the aqueous humor
- ocular comfort score ([5]; lower concentrations 0.03 and 0.1% w/v in formulation A, versus ALPHAGAN, RESTASIS, pilocarpine, LUMIGAN): comparable to those of the approved glaucoma medications
